{
  "source": "patent US20210113586A1",
  "about": "“NEW USE AND METHODS OF MODULATING IMMUNE RESPONSES” (DIAMYD MEDICAL AB, priority 2018, published 2021)",
  "key": {"[1]": {"test_system": "non-responder CD4+ T cells", "experiment": "Multiplex PEA of cytokines released into culture medium by non-responder CD4+ T cells", "type": "cell-based, human", "procedure": "(§1) The proliferation of freshly isolated human PBMCs or CD4^+ T cells was evaluated with MTT (3-(4,5-Dimethylthiazol-2-yl)-2,5-Diphenyltetrazolium Bromide) assay (Ring et al., 2012). Cells were suspended in complete medium (RPMI 1640 supplemented with 2 mM glutamine, 25 mM HEPES, 10% heat inactivated fetal bovine serum, 100 U/ml penicillin, 10 mg/ml streptomycin, 5 mM R-mercaptoethanol) in a concentration 1 million cells per milliliter. The assay was performed in 96-well plates in duplicates or triplicates, where each well was pre-coated with 3 μg/ml anti-CD3 antibody for 3-5 h at 37° C. Each well was loaded with 100,000 cells. Drugs were added to the wells at the relevant concentrations. The plate was incubated for 68 h at 37° C. (95% O2, 5% CO2) and then, a media-soluble tetrazolium dye MTT was added to a final concentration of 1 mM after which the plate was incubated for additional 4 h. The plate was then centrifuged at 2,000 RPM for 10 min to pellet the insoluble purple formazan crystals. The supernatant culture media was collected, stored at −80° C. and used for analysis of cytokines using the multiplex proximity extension assay (PEA). The formazan crystal pellet was dissolved in DMSO and the plate was read within 10 min using a Multiskan MS plate reader (Labsystems) at 550 nm. The optical density value was used as the proliferation index value. Drugs were purchased from Sigma-Aldrich or Tocris (Bristol, UK).\n(§2) Plasma samples, and culture media samples that were collected from plate wells at the end of the proliferation assay, were analyzed by multiplex PEA with an Olink Inflammation […] panel, targeting 92 proteins related to inflammation (Olink Proteomics, Uppsala, Sweden) as previously described (Edvinsson et al., 2017, Assarsson et al., 2014, Larsson et al., 2015, Larssen et al., 2017). Briefly, 1 μl of sample (plasma samples or cell culture media samples) or negative control was mixed with 3 μl probe solution containing a set of 92 paires DNA-oligonucleotide-conjugated antibodies. Upon recognition of a target protein by a pair of probes, the DNA oligonucletodies on the antibodies are brought in proximity and hybridize to each other, followed by enzymatic DNA polymerization to form a new DNA molecule. The newly formed DNA molecule is then amplified and quantified using a microfluidic real-time qPCR, BioMark™ HD (Fluidigm, South San Francisco, Calif., USA). The generated quantification cycle (Cq) values are normalized against spiked-in controls to convert Cq values to Normalized Protein eXpression (NPX) value on log2 scale. NPX is an arbitrary unit, which is positively correlated to protein concentration. These NPX data were then converted to linear data, using the formula 2^NPX, prior to further statistical analysis. Limit of detection (LOD) for each protein was defined as three standard deviations above the background. Proteins with levels below LOD were excluded from further data analysis."}, "[2]": {"test_system": "PBMCs from type 1 diabetic (T1D) patients", "details": "GABA 100 nM", "procedure": "as §1, §2"}, "[3]": {"test_system": "PBMCs from ND individuals", "details": "Example 1, FIG. 1C; PBMCs of 15 healthy donors; 100 nM GABA", "procedure": "(§3) Peripheral Blood Mononuclear cells (PBMCs) are isolated from blood from donors diagnosed with Type-1 diabetes and healthy controls. Alternatively, CD4-positive cells (T-cells) are further isolated from PBMCs by e.g. MACS beads, FACS or similar technology. […] A reasonable replication, such as 3 cultures of each condition, is performed. A normalized proliferation value for each culture is then calculated by a standard proliferation measurement method, such as by CFSE staining or radioactive thymidine incorporation (requiring additional factors be added during culture) or by staining for proliferation markers.\n(§4) In the FIG. 1, the proliferation of cells retrieved from 13 T1D subjects and 15 healthy controls were inspected. […] A normalized proliferation index was calculated for each culture.\nThe proliferation of freshly isolated human PBMCs or CD4^+ T cells was evaluated with MTT (3-(4,5-Dimethylthiazol-2-yl)-2,5-Diphenyltetrazolium Bromide) assay (Ring et al., 2012). Cells were suspended in complete medium (RPMI 1640 supplemented with 2 mM glutamine, 25 mM HEPES, 10% heat inactivated fetal bovine serum, 100 U/ml penicillin, 10 mg/ml streptomycin, 5 mM R-mercaptoethanol) in a concentration 1 million cells per milliliter. […] The formazan crystal pellet was dissolved in DMSO and the plate was read within 10 min using a Multiskan MS plate reader (Labsystems) at 550 nm. […]"}, "responder CD4+ T cells": {"test_system": "responder CD4+ T cells", "experiment": "Proliferation of anti-CD3 stimulated GABA responder CD4+ T cells from ND individuals", "type": "cell-based, human", "details": "Example 1, FIG. 1B; CD4-positive cells from 10 healthy donors; 100 nM GABA", "procedure": "as §3, §4, §1"}, "[4]": {"details": "GABA 100 nM, non-responder CD4+ T cells, normalized to control"}, "[5]": {"details": "GABA 500 nM, non-responder CD4+ T cells, normalized to control"}, "[6]": {"details": "T1D PBMCs, normalized to control"}},
  "data": [
    {"smiles": "NCCCC(=O)O", "note": "[GABA, gamma-aminobutyric acid]", "values": [
      {"measurement": "IL-1 alpha in culture medium, % Mean", "setting": "[1]; [4]", "value": 112.8, "unit": "%"},
      {"measurement": "MMP-1 in culture medium, % Mean", "setting": "[1]; [4]", "value": 124.2, "unit": "%"},
      {"measurement": "IL-5 in culture medium, % Mean", "setting": "[1]; [5]", "value": 87.2, "unit": "%"},
      {"measurement": "PD-L1 in culture medium, % Mean", "setting": "[1]; [5]", "value": 120.4, "unit": "%"},
      {"measurement": "TGF-alpha in culture medium, % Mean", "setting": "[1]; [5]", "value": 109.5, "unit": "%"},
      {"measurement": "number of cytokines whose secretion was regulated", "setting": "[1]; GABA 100 and 500 nM, at each concentration", "value": "four"},
      {"measurement": "4E-BP1 in culture medium, % Mean", "setting": "[2]; [6]", "value": 45.5, "unit": "%"},
      {"measurement": "ADA in culture medium, % Mean", "setting": "[2]; [6]", "value": 53.4, "unit": "%"},
      {"measurement": "AXIN1 in culture medium, % Mean", "setting": "[2]; [6]", "value": 62.8, "unit": "%"},
      {"measurement": "CASP-8 in culture medium, % Mean", "setting": "[2]; [6]", "value": 60.9, "unit": "%"},
      {"measurement": "CCL4 in culture medium, % Mean", "setting": "[2]; [6]", "value": 85.1, "unit": "%"},
      {"measurement": "CCL19 in culture medium, % Mean", "setting": "[2]; [6]", "value": 43.8, "unit": "%"},
      {"measurement": "CCL20 in culture medium, % Mean", "setting": "[2]; [6]", "value": 31.5, "unit": "%"},
      {"measurement": "CD244 in culture medium, % Mean", "setting": "[2]; [6]", "value": 76.3, "unit": "%"},
      {"measurement": "CSF-1 in culture medium, % Mean", "setting": "[2]; [6]", "value": 70.5, "unit": "%"},
      {"measurement": "CXCL1 in culture medium, % Mean", "setting": "[2]; [6]", "value": 52.6, "unit": "%"},
      {"measurement": "CXCL5 in culture medium, % Mean", "setting": "[2]; [6]", "value": 68.1, "unit": "%"},
      {"measurement": "CXCL6 in culture medium, % Mean", "setting": "[2]; [6]", "value": 54.0, "unit": "%"},
      {"measurement": "CXCL9 in culture medium, % Mean", "setting": "[2]; [6]", "value": 45.5, "unit": "%"},
      {"measurement": "CXCL10 in culture medium, % Mean", "setting": "[2]; [6]", "value": 42.5, "unit": "%"},
      {"measurement": "CXCL11 in culture medium, % Mean", "setting": "[2]; [6]", "value": 61.4, "unit": "%"},
      {"measurement": "EN-RAGE in culture medium, % Mean", "setting": "[2]; [6]", "value": 71.1, "unit": "%"},
      {"measurement": "Flt3L in culture medium, % Mean", "setting": "[2]; [6]", "value": 62.9, "unit": "%"},
      {"measurement": "IL-1 alpha in culture medium, % Mean", "setting": "[2]; [6]", "value": 43.5, "unit": "%"},
      {"measurement": "IL-2RB in culture medium, % Mean", "setting": "[2]; [6]", "value": 73.0, "unit": "%"},
      {"measurement": "IL-4 in culture medium, % Mean", "setting": "[2]; [6]", "value": 117.0, "unit": "%"},
      {"measurement": "IL-5 in culture medium, % Mean", "setting": "[2]; [6]", "value": 85.3, "unit": "%"},
      {"measurement": "IL-6 in culture medium, % Mean", "setting": "[2]; [6]", "value": 49.4, "unit": "%"},
      {"measurement": "IL-10 in culture medium, % Mean", "setting": "[2]; [6]", "value": 61.4, "unit": "%"},
      {"measurement": "IL-12B in culture medium, % Mean", "setting": "[2]; [6]", "value": 53.3, "unit": "%"},
      {"measurement": "IL-13 in culture medium, % Mean", "setting": "[2]; [6]", "value": 53.0, "unit": "%"},
      {"measurement": "IL-17A in culture medium, % Mean", "setting": "[2]; [6]", "value": 58.9, "unit": "%"},
      {"measurement": "IL-18R1 in culture medium, % Mean", "setting": "[2]; [6]", "value": 63.3, "unit": "%"},
      {"measurement": "IL-24 in culture medium, % Mean", "setting": "[2]; [6]", "value": 86.9, "unit": "%"},
      {"measurement": "LAP TGF-beta-1 in culture medium, % Mean", "setting": "[2]; [6]", "value": 67.6, "unit": "%"},
      {"measurement": "LIF in culture medium, % Mean", "setting": "[2]; [6]", "value": 70.0, "unit": "%"},
      {"measurement": "MCP-1 in culture medium, % Mean", "setting": "[2]; [6]", "value": 53.0, "unit": "%"},
      {"measurement": "MCP-2 in culture medium, % Mean", "setting": "[2]; [6]", "value": 35.4, "unit": "%"},
      {"measurement": "MCP-3 in culture medium, % Mean", "setting": "[2]; [6]", "value": 44.6, "unit": "%"},
      {"measurement": "MIP-1 alpha in culture medium, % Mean", "setting": "[2]; [6]", "value": 106.2, "unit": "%"},
      {"measurement": "MMP-1 in culture medium, % Mean", "setting": "[2]; [6]", "value": 78.4, "unit": "%"},
      {"measurement": "MMP-10 in culture medium, % Mean", "setting": "[2]; [6]", "value": 61.3, "unit": "%"},
      {"measurement": "OPG in culture medium, % Mean", "setting": "[2]; [6]", "value": 45.1, "unit": "%"},
      {"measurement": "OSM in culture medium, % Mean", "setting": "[2]; [6]", "value": 69.8, "unit": "%"},
      {"measurement": "PD-L1 in culture medium, % Mean", "setting": "[2]; [6]", "value": 57.0, "unit": "%"},
      {"measurement": "SIRT2 in culture medium, % Mean", "setting": "[2]; [6]", "value": 53.5, "unit": "%"},
      {"measurement": "STAMP8 in culture medium, % Mean", "setting": "[2]; [6]", "value": 53.9, "unit": "%"},
      {"measurement": "TGFA in culture medium, % Mean", "setting": "[2]; [6]", "value": 61.1, "unit": "%"},
      {"measurement": "TNF in culture medium, % Mean", "setting": "[2]; [6]", "value": 47.4, "unit": "%"},
      {"measurement": "TNFRSF9 in culture medium, % Mean", "setting": "[2]; [6]", "value": 71.1, "unit": "%"},
      {"measurement": "TNFSF14 in culture medium, % Mean", "setting": "[2]; [6]", "value": 69.9, "unit": "%"},
      {"measurement": "TRAIL in culture medium, % Mean", "setting": "[2]; [6]", "value": 67.0, "unit": "%"},
      {"measurement": "TWEAK in culture medium, % Mean", "setting": "[2]; [6]", "value": 55.7, "unit": "%"},
      {"measurement": "VEGF-A in culture medium, % Mean", "setting": "[2]; [6]", "value": 82.1, "unit": "%"},
      {"measurement": "μPA in culture medium, % Mean", "setting": "[2]; [6]", "value": 86.3, "unit": "%"},
      {"measurement": "number of cytokines whose release was increased", "setting": "[2]; n=13, FIG. 4c", "value": "two"},
      {"measurement": "proliferation in the presence of GABA", "setting": "[3]", "value": "did not proliferate differently"},
      {"measurement": "proliferation in the presence of GABA", "setting": "responder CD4+ T cells", "value": "did proliferate less"}
    ]}
  ]
}
